The record followed here is US6444692B1, “Fungicidal mixtures” (BASF Aktiengesellschaft, priority 1997, dated 2002).

The test system of this assay is powdery mildew of wheat (Erysiphe graminis forma specialis tritici). As to the kind of experiment: Activity against powdery mildew of wheat (protective spray on wheat seedlings, visual % infection of leaf area after 7 days). The assay is classed as in vivo. The note with it: single active ingredient, wheat seedlings cv. Frühgold. The text has this:
The active ingredients, separately or together, are formulated as a 10% emulsion in a mixture of 70% by weight of cyclohexanone, 20% by weight of Nekanil® LN (Lutensol® AP6, wetting agent having emulsifying and dispersing action, based on ethoxylated alkylphenols) and 10% by weight of Emulphor® EL (Emulan® EL, emulsifier based on ethoxylated fatty alcohols) and diluted with water to give the desired concentration.
Leaves of wheat seedlings cv. “Frühgold” which had been grown in pots were sprayed to runoff point with an aqueous preparation of active ingredient which had been prepared from a stock solution comprising 10% of active ingredient, 63% of cyclohexanone and 27% of emulsifier and, 24 hours after the spray coating had dried on, dusted with spores of powdery mildew of wheat (Erysiphe graminis forma specialis tritici). The test plants were subsequently placed in a greenhouse at from […] and a relative atmospheric humidity of 60 to 90%. After 7 days, the extent of mildew development was determined visually as % infection of the total leaf area.
Evaluation is carried out by determining the infected leaf areas in percent. These percentages are converted into efficacies. The expected efficacies of the mixtures of the active ingredients are determined using Colby's formula [R. S. Colby, Weeds 15, 20-22 (1967)] and compared with the observed efficacies. […]
The efficacy (E) is calculated as follows using Abbot's formula: […]
α corresponds to the fungal infection of the treated plants in % and
β corresponds to the fungal infection of the untreated (control) plants in %
An efficacy of 0 means that the infection level of the treated plants corresponds to that of the untreated control plants; an efficacy of 100 means that the treated plants were not infected.

For the compound `CNC(=O)/C(=N\OC)c1ccccc1COc1cc(C)ccc1C` [Compound III], the “Efficacy in % of the untreated control” value (0.125 ppm in the spray liquor) stood at 20%. Turning to `CO/N=C(\C(=O)OC)c1ccccc1COc1ccccc1C` [Compound II], for the setting “0.125 ppm in the spray liquor”, the “Efficacy in % of the untreated control” value is given as 0%. Turning to `COC(=O)N(OC)c1ccccc1COc1ccn(-c2ccc(Cl)cc2)n1` [Compound I.32], the “Efficacy in % of the untreated control” value amounted to 0% (0.125 ppm in the spray liquor) and 10% (0.5 ppm in the spray liquor).
